Data on two molecules can be found in patent publication US5004690A, “Ascorbic acid intermediates and process enzymes” (Genetech, Inc., priority 1989, dated 1991).

Where two headings read alike, the source gives them in different places.

A word on the Km: it is the substrate concentration at which the rate is half of its maximum.

The assay has as its target T1, 2,5-DKG reductase (Corynebacterium sp., UniProt P06632).
T1 construct: resuspension in 650 ml Tris buffer containing 2 mg/ml lyozyme to release intracellular proteins; endogenous in cells; host or cells: Corynebacterium sp; ATCC 31090 (enzyme purified in house from the cell paste)
Description: 2,5-DKG reductase assay: kinetic parameters, substrate specificity, cofactor requirements, pH optimum. In kind it is biochemical, Corynebacterium sp. ATCC 31090. The settings on record: sodium phosphate buffer 150 mM, pH 6.4, 25° C., enzyme 10 μg, read-out: Michaelis constants (Km). From the text: The following assay conditions were used to determine kinetic parameters: […]

T1 sequence (P06632 whole entry): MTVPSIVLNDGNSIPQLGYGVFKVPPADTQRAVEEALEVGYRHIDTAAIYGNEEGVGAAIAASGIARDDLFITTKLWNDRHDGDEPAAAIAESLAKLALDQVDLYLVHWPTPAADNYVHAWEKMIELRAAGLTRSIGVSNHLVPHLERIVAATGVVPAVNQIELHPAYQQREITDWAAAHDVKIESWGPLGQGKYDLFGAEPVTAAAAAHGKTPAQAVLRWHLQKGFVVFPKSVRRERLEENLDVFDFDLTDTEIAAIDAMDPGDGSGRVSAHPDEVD

In the case of `O=C(O)C(=O)[C@@H](O)[C@H](O)C(=O)CO` [2,5-DKG, 2,5-diketogluconic acid], the Michaelis-Menten constant (Km) (2,5-DKG 0.43-43 mM) was 15.5 mM.
For `NC(=O)C1=CN([C@@H]2O[C@H](COP(=O)(O)OP(=O)(O)OC[C@H]3O[C@@H](n4cnc5c(N)ncnc54)[C@H](OP(=O)(O)O)[C@@H]3O)[C@@H](O)[C@H]2O)C=CC1` [NADPH], the Km (NADPH 11-300 μM) stood at 0.0337 mM.
